{
  "source": "patent US20250197403A1",
  "about": "“HETEROARYL COMPOUNDS FOR TREATMENT OF COMPLEMENT FACTOR D MEDIATED DISORDERS” (Achillion Pharmaceuticals, Inc., priority 2020, published 2025)",
  "data": [
    {"target": "Human Factor D (Homo sapiens (Human), UniProt P00746)", "sequence (P00746 26-253)": "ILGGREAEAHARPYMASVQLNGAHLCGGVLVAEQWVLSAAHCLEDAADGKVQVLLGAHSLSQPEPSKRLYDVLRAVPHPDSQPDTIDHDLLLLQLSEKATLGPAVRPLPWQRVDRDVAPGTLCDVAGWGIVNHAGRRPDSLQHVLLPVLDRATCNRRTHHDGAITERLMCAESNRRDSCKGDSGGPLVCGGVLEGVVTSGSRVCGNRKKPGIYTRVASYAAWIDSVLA", "experiment": "Human Factor D Assay", "assay_type": "biochemical", "settings": "Human Factor D 80 nM, substrate Z-L-Lys-SBzl, assay according to Example 3", "method": "The assay according to Example 3 was used to determine the IC50's of the compounds. Other standard factor D inhibition assays are also available.\nHuman Factor D (purified from human serum, Complement Technology, Inc.) at 80 nM final concentration is incubated with test compound at various concentrations for 5 min at room temperature in 50 mM Tris, 1M NaCl, pH 7.5. A synthetic substrate Z-L-Lys-SBzl and DTNB (Ellman's reagent) are added to final concentrations of 100 μM each. Absorbance at 405 nm (A405) is recorded at 30 second intervals for 30 min using a microplate spectrophotometer. IC50 values are calculated by nonlinear regression of complement Factor D reaction rates as a function of test compound concentration.", "units": {"IC50": "µM"}, "values": [
      {"smiles": "CC(=O)c1cn(CC(=O)N2[C@H](C(=O)Nc3nc(C(F)(F)F)ccc3C)C[C@@]3(C)C[C@@H]23)c2c(C)nc(-c3ccc4nc(C)nn4c3)cc12", "note": "[Compound 56, (1R,3S,5R)-2-(2-(3-acetyl-7-methyl-5-(2-methyl-[1,2,4]triazolo[1,5-a]pyr-idin-6-yl)-1H-pyrrolo[2,3-c]pyridin-1-yl)acetyl)-5-methyl-N-(3-methyl-6-(trifluoromethyl)pyridin-2-yl)-2-azabicyclo[3.1.0] hexane-3-carboxamide]", "IC50": "< 1"},
      {"smiles": "CC(=O)c1cn(CC(=O)N2[C@H](C(=O)Nc3nc(C(F)(F)F)ncc3C)C[C@@]3(C)C[C@@H]23)c2c(C)cc(-c3cnc(C)nc3)cc12", "note": "[Compound 57, (1R,3S,5R)-2-(2-(3-acetyl-7-methyl-5-(2-methylpyr-imidin-5-yl)-1H-indol-1-yl)acetyl)-5-methyl-N-(5-methyl-2-(trifluorometh-yl)pyrimidin-4-yl)-2-aza-bicyclo[3.1.0]hexane-3-carboxamide]", "IC50": "< 1"},
      {"smiles": "COCc1ccc(C(F)(F)F)nc1NC(=O)[C@@H]1C[C@@]2(C)C[C@H]2N1C(=O)Cn1cc(C(C)=O)c2cc(-c3cnc4cc(C)nn4c3)c(F)c(C)c21", "note": "[Compound 2, (1R,3S,5R)-2-(2-(3-acetyl-6-fluoro-7-methyl-5-(2-methylpyrazolo[1,5-a]-pyrimidin-6-yl)-1H-indol-1-yl)acetyl)-N-(3-(meth-oxymethyl)-6-(trifluoro-methyl)pyridin-2-yl)-5-methyl-2-azabicyclo[3.1.0] hexane-3-carboxamide]", "IC50": "< 1"},
      {"smiles": "CC(=O)c1cn(CC(=O)N2[C@H](C(=O)N[C@H](C)C(F)=C(C)C)C[C@@]3(C)C[C@@H]23)c2c(C)cc(-c3cnc4cc(C)nn4c3)cc12", "note": "[Compound 27, (1R,3S,5R)-2-(2-(3-acetyl-7-methyl-5-(2-methylpyr-azolo[1,5-a]pyrimidin-6-yl)-1H-indol-1-yl)acetyl)-N-((R)-3-fluoro-4-methyl-pent-3-en-2-yl)-5-methyl-2-azabicyclo[3.1.0]hexane-3-carboxamide]", "IC50": "< 1"},
      {"smiles": "COCc1ccc(C(F)(F)F)nc1NC(=O)[C@@H]1C[C@@]2(C)C[C@H]2N1C(=O)Cn1cc(C(C)=O)c2cc(-c3ccc4nc(C)nn4c3)c(F)c(C)c21", "note": "[Compound 5, (1R,3S,5R)-2-(2-(3-acetyl-6-fluoro-7-methyl-5-(2-methyl-[1,2,4]triazolo[1,5-a]pyridin-6-yl)-1H-indol-1-yl)acetyl)-N-(3-(meth-oxymethyl)-6-(trifluoro-methyl)pyridin-2-yl)-5-methyl-2-azabicyclo[3.1.0] hexane-3-carboxamide]", "IC50": "< 1"},
      {"smiles": "CC(=O)c1cn(CC(=O)N2[C@H](C(=O)Nc3nc(C(F)(F)F)ccc3C)C[C@@]3(C)C[C@@H]23)c2c(CO)cc(-c3cnc4cc(C)nn4c3)cc12", "note": "[Compound 43, (1R,3S,5R)-2-(2-(3-acetyl-7-(hydroxymethyl)-5-(2-methylpyrazolo[1,5-a]pyr-imidin-6-yl)-1H-indol-1-yl)acetyl)-5-methyl-N-(3-methyl-6-(trifluorometh-yl)pyridin-2-yl)-2-azabi-cyclo[3.1.0]hexane-3-car-boxamide]", "IC50": "< 1"},
      {"smiles": "CC(=O)c1cn(CC(=O)N2[C@H](C(=O)Nc3nc(C(F)(F)F)ccc3Cl)C[C@@]3(C)C[C@@H]23)c2c(C)cc(-c3ccc4nc(C)nn4c3)cc12", "note": "[Compound 3, (1R,3S,5R)-2-(2-(3-acetyl-7-methyl-5-(2-methyl-[1,2,4]triazolo[1,5-a]pyr-idin-6-yl)-1H-indol-1-yl)-acetyl)-N-(3-chloro-6-(tri-fluoromethyl)pyridin-2-yl)-5-methyl-2-azabicyclo-[3.1.0]hexane-3-carbox-amide]", "IC50": "< 1"},
      {"smiles": "CC(=O)c1cn(CC(=O)N2[C@H](C(=O)Nc3nc(C(F)(F)F)c(F)cc3C)C[C@@]3(C)C[C@@H]23)c2c(C)cc(-c3cnc4cc(C)nn4c3)cc12", "note": "[Compound 16, (1R,3S,5R)-2-(2-(3-acetyl-7-methyl-5-(2-methylpyr-azolo[1,5-a]pyrimidin-6-yl)-1H-indol-1-yl)acetyl)-N-(5-fluoro-3-methyl-6-(trifluoromethyl)pyridin-2-yl)-5-methyl-2-azabicyclo [3.1.0]hexane-3-carbox-amide]", "IC50": "< 1"},
      {"smiles": "CC(=O)c1cn(CC(=O)N2C[C@@](F)(CF)C[C@H]2C(=O)Nc2nc(C(F)(F)F)ccc2C)c2c(C)cc(-c3ccc4nc(C)nn4c3)cc12", "note": "[Compound 11, (2S,4R)-1-(2-(3-acetyl-7-methyl-5-(2-methyl-[1,2,4]triazolo[1,5-a]pyr-idin-6-yl)-1H-indol-1-yl)-acetyl)-4-fluoro-4-(fluoro-methyl)-N-(3-methyl-6-(trifluoromethyl)pyridin-2-yl)pyrrolidine-2-carbox-amide]", "IC50": "< 1"},
      {"smiles": "CC(=O)c1cn(CC(=O)N2[C@H](C(=O)Nc3nc(C(F)(F)F)cc(F)c3C)C[C@@]3(C)C[C@@H]23)c2c(C)cc(-c3cnc4cc(C)nn4c3)cc12", "note": "[Compound 12, (1R,3S,5R)-2-(2-(3-acetyl-7-methyl-5-(2-methylpyr-azolo[1,5-a]pyrimidin-6-yl)-1H-indol-1-yl)acetyl)-N-(4-fluoro-3-methyl-6-(trifluoromethyl)pyridin-2-yl)-5-methyl-2-azabicyclo [3.1.0]hexane-3-carbox-amide]", "IC50": "< 1"},
      {"smiles": "CC(=O)c1nn(CC(=O)N(C)[C@@H](C)C(=O)Nc2nc(Br)ccc2C)c2cc3c(cc12)-c1cnc(C)nc1C=CC3", "note": "[Compound 110, (S)-2-(2-(11-acetyl-3-methylpyrimido[4′,5′:6,7]cyclohepta[1,2-f]indazol-9(7H)-yl)-N-methylacetamido)-N-(6-bromo-3-methylpyridin-2-yl)propanamide]", "IC50": "< 1"},
      {"smiles": "CC(=O)c1cn(CC(=O)N2[C@H](C(=O)Nc3nc(Br)ccc3C)C[C@@]3(C)C[C@@H]23)c2cc3c(cc12)NC1(COC1)CO3", "note": "[Compound 20, (1R,3S,5R)-2-(2-(8′-acetyl-1′H-spiro[oxetane-3,2′-[1,4]oxazino[3,2-f]indol]-6′(3′H)-yl)acetyl)-N-(6-bromo-3-methylpyridin-2-yl)-5-methyl-2-azabicyclo [3.1.0]hexane-3-carbox-amide]", "IC50": "< 1"},
      {"smiles": "CC(=O)c1cn(CC(=O)N2[C@H](C(=O)Nc3nc(C(F)(F)F)ccc3C)C[C@@]3(C)C[C@@H]23)c2c(C)c(F)c(-c3cnc4cc(C)nn4c3)cc12", "note": "[Compound 49, (1R,3S,5R)-2-(2-(3-acetyl-6-fluoro-7-methyl-5-(2-methylpyrazolo[1,5-a]pyr-imidin-6-yl)-1H-indol-1-yl)acetyl)-5-methyl-N-(3-methyl-6-(trifluorometh-yl)pyridin-2-yl)-2-azabi-cyclo[3.1.0]hexane-3-car-boxamide]", "IC50": "< 1"},
      {"smiles": "CC(=O)c1cn(CC(=O)N2[C@H](C(=O)Nc3nc(C(F)(F)F)ccc3Cl)C[C@@]3(C)C[C@@H]23)c2c(C)cc(-c3cnc4cc(C)nn4c3)cc12", "note": "[Compound 51, (1R,3S,5R)-2-(2-(3-acetyl-7-methyl-5-(2-methylpyr-azolo[1,5-a]pyrimidin-6-yl)-1H-indol-1-yl)acetyl)-N-(3-chloro-6-(trifluoro-methyl)pyridin-2-yl)-5-methyl-2-azabicyclo[3.1.0] hexane-3-carboxamide]", "IC50": "< 1"},
      {"smiles": "COCc1ccc(C(F)(F)F)nc1NC(=O)[C@@H]1C[C@@]2(C)C[C@H]2N1C(=O)Cn1cc(C(C)=O)c2cc(-c3cnc(C)nc3)cc(C)c21", "note": "[Compound 52, (1R,3S,5R)-2-(2-(3-acetyl-7-methyl-5-(2-methylpyr-imidin-5-yl)-1H-indol-1-yl)acetyl)-N-(3-(methoxy-methyl)-6-(trifluorometh-yl)pyridin-2-yl)-5-methyl-2-azabicyclo[3.1.0]hexane-3-carboxamide]", "IC50": "< 1"},
      {"smiles": "CC(=O)c1cn(CC(=O)N2[C@H](C(=O)N[C@H](C)C(F)=C(C)C)C[C@@]3(C)C[C@@H]23)c2c(C)nc(-c3cnc4cc(C)nn4c3)cc12", "note": "[Compound 29, (1R,3S,5R)-2-(2-(3-acetyl-7-methyl-5-(2-methylpyr-azolo[1,5-a]pyrimidin-6-yl)-1H-pyrrolo[2,3-c]pyr-idin-1-yl)acetyl)-N-((R)-3-fluoro-4-methylpent-3-en-2-yl)-5-methyl-2-azabi-cyclo[3.1.0]hexane-3-car-boxamide]", "IC50": "< 1"},
      {"smiles": "CC(=O)c1cn(CC(=O)N2C[C@H]3C[C@H]3[C@H]2C(=O)Nc2nc(Br)ccc2C)c2c(C)cc(-c3cnc4cc(C)nn4c3)cc12", "note": "[Compound 63, (1R,2S,5S)-3-(2-(3-acetyl-7-methyl-5-(2-methylpyr-azolo[1,5-a]pyrimidin-6-yl)-1H-indol-1-yl)acetyl)-N-(6-bromo-3-methylpyr-idin-2-yl)-3-azabicyclo [3.1.0]hexane-2-carbox-amide]", "IC50": "< 1"},
      {"smiles": "CC(=O)c1cn(CC(=O)N2C[C@H]3C[C@H]3[C@H]2C(=O)Nc2nc(C(F)(F)F)ccc2Cl)c2c(C)cc(-c3cnc4cc(C)nn4c3)cc12", "note": "[Compound 6, (1R,2S,5S)-3-(2-(3-acetyl-7-methyl-5-(2-methylpyr-azolo[1,5-a]pyrimidin-6-yl)-1H-indol-1-yl)acetyl)-N-(3-chloro-6-(trifluoro-methyl)pyridin-2-yl)-3-azabicyclo[3.1.0]hexane-2-carboxamide]", "IC50": "< 1"},
      {"smiles": "CC(=O)c1cn(CC(=O)N2[C@H](C(=O)Nc3nc(C(F)(F)F)ccc3C)C[C@@]3(C)C[C@@H]23)c2c(CF)cc(-c3cnc4cc(C)nn4c3)cc12", "note": "[Compound 46, (1R,3S,5R)-2-(2-(3-acetyl-7-(fluoromethyl)-5-(2-methylpyrazolo[1,5-a]pyr-imidin-6-yl)-1H-indol-1-yl)acetyl)-5-methyl-N-(3-methyl-6-(trifluorometh-yl)pyridin-2-yl)-2-azabi-cyclo[3.1.0]hexane-3-car-boxamide]", "IC50": "< 1"}
    ]}
  ]
}
